{
  "source": "patent US20220273813A1",
  "about": "“PHOTOSENSITIZER-CONJUGATED ANTIMICROBIAL CELLULOSE NANOCRYSTALS AND METHODS OF SYNTHESIZING AND USING SAME” (HNU MATERIALS INC., priority 2019, published 2022)",
  "key": {"[1]": {"tested_on": "E. coli (ATCC25922)", "assay": "Photobactericidal activity, CFU count, E. coli", "details": "20 min ambient light (LED); concentration matched to absorption of 8 mg/L CNC-AA", "protocol": "In the experimental set-up, the viability of bacteria as a response to intensity of white light exposure and concentration of disinfectant was monitored. This was carried out by calculating the number of bacterial colonies present in solution before and after exposure.\nAccording to the experimental protocol, a suspension of cells (2.6×10^8 cells/ml ±0.5 log) was treated with either AA, CNC or CNC+AA or CNC-AA or PBS (untreated control) at different concentration (FIGS. 7-9). For each set of conditions, the initial culture was equally divided into two. One part was light treated while the other was kept in the dark. After different time periods (FIGS. 7-9), bactericidal activity was quantified by counting colony forming units (CFU) on agar plates. […] Comparison of the number of CFUs in the treated samples (AA, CNC, CNC+AA and CNC-AA) to untreated (PBS) placed under light, enabled the inventors to quantify the specific photo-bactericidal activity of the test agents. Killing effect was calculated using the following expression (equation 2).\nKilling=Log 10(#CFUUntreated)−Log 10(CFUtreated) (2)"}, "[2]": {"tested_on": "P. aeruginosa biofilms", "set-up": "dose or concentration left out as unconfirmed", "details": "combined with laser irradiation at specific wavelengths; cited from earlier work"}},
  "data": [
    {"smiles": "CN(C)c1ccc2nc3ccc(N)cc3[s+]c2c1.[Cl-]", "note": "[AA, azure A]", "values": [
      {"measurement": "toxicity against E. coli", "setting": "[1]", "value": "significantly reduced compared to CNC-AA"}
    ]},
    {"smiles": "CN(C)c1ccc2nc3ccc(=[N+](C)C)cc-3sc2c1", "note": "[methylene blue]", "values": [
      {"measurement": "concentration necessary to eradicate P. aeruginosa biofilms", "setting": "[2]", "value": 0.01, "unit": "% wt/wt"}
    ]}
  ]
}
